How the values were obtained:
[1] = system: MT2; assay: Cytotoxicity against MT2 cells; format: functional; settings: Homo sapiens
[2] = system: Human immunodeficiency virus 1; assay: Antiviral activity against wild-type HIV1 in MT2 cells by MTT assay; format: functional, organism-based
[3] = Human immunodeficiency virus 1, MT2, read-out: EC50

| SMILES | CC50 [1] | EC50 [2, 3] | EC50 [2] |
| --- | --- | --- | --- |
| CC(C)=CCOc1cc(Nc2nccc(N)n2)ccc1Cl | 0.5 µM |  |  |
| CC(C)=CCOc1cc(Nc2nccs2)ccc1Cl | 26 µM | 0.3 µM |  |
| CC(C)=CCOc1cc(Nc2nccc(C)n2)ccc1Cl | < 0.2 µM |  | Not Active |
| Cc1cc(C#N)cc(C)c1Oc1nc(Nc2ccc(C#N)cc2)nc(N)c1Br [ETRAVIRINE] | > 1 µM | < 0.002 µM |  |
| CC(C)=CCOc1cc(Nc2nccs2)ccc1C#N | 0.5 µM | 0.21 µM |  |
| CC(C)=CCOc1cccc(Nc2nccs2)c1 | 23 µM | 10 µM |  |
| CC(C)=CCOc1cc(NC(=S)c2ccoc2C)ccc1Cl [UC 781] | > 100 µM | 0.002 µM |  |
| COc1ccnc(Nc2ccc(Cl)c(OCC=C(C)C)c2)n1 | 9 µM |  |  |
| CC(C)=CCOc1cc(Nc2ccccn2)ccc1Cl | 15 µM |  |  |
| CC(C)=CCOc1cc(Nc2ccccn2)ccc1C | 35 µM |  | Not Active |
| Cc1ccnc2c1NC(=O)c1cccnc1N2C1CC1 [NEVIRAPINE] | > 10 µM |  |  |
| CC(C)=CCOc1cccc(Nc2ncccn2)c1 | > 100 µM | 30 µM |  |
| CC(C)=CCOc1cc(Nc2ncccn2)ccc1C#N | < 0.2 µM |  | Not Active |
| Cc1cn([C@H]2C=C[C@@H](CO)O2)c(=O)[nH]c1=O [STAVUDINE] | > 100 µM | 3 µM |  |
| CC(C)=CCOc1cc(Nc2nccs2)ccc1C | 17 µM | 3 µM |  |
| CCCc1ccc(Nc2nccs2)cc1OCC=C(C)C | 23 µM | 23 µM |  |
| CCc1ccc(Nc2nccs2)cc1OCC=C(C)C | 31 µM | 5 µM |  |
| CC(C)=CCOc1cc(Nc2nccc(C(F)(F)F)n2)ccc1Cl | 2.5 µM | 0.065 µM |  |
| CC(C)=CCOc1cc(Nc2nccs2)ccc1C(C)C | 31 µM |  | Not Active |
| CSc1ccnc(Nc2ccc(Cl)c(OCC=C(C)C)c2)n1 | 2.8 µM |  |  |
| CC(C)=CCOc1cc(Nc2ncccn2)ccc1Cl | 2.5 µM |  |  |
| CC(C)=CCOc1cc(Nc2ccccn2)ccc1C#N | 0.29 µM |  | Not Active |
| CC(C)=CCOc1cc(Nc2ncccn2)ccc1C | 78 µM | 2.8 µM |  |
| COc1ccc(Nc2nccs2)cc1OCC=C(C)C | 42 µM | 3.8 µM |  |

Source: ChEMBL document CHEMBL1149373, “Computer-aided design of non-nucleoside inhibitors of HIV-1 reverse transcriptase” (Bioorg Med Chem Lett, 2006)
